For 19 molecules, IC50 results are on record in patent publication US11230555B2, “Bicyclic RORγ modulators” (Escalier Biosciences B.V., priority 2018, dated 2022).

As a reminder, the IC50 is the midpoint of a concentration-inhibition curve. A low value points to higher potency.

Structures are written as SMILES.

The experiment concerns the target T1, RORγt (Homo sapiens, UniProt P51449).
T1 construct: purchased reporter-cell kit
T1 sequence (P51449 269-508 limits assumed): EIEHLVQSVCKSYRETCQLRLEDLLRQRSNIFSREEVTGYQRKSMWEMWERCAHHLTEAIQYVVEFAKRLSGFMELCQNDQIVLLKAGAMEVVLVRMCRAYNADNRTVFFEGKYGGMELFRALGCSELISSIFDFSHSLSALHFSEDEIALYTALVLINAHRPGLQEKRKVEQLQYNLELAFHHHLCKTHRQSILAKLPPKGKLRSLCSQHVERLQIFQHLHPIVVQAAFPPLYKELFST
Kind of experiment: Gal4 ligand binding assay (RORγt Gal fusion reporter assay). Format: cell-based. To be noted: inverse agonists, luciferase reporter, 24h. The method, then: Compounds of the present invention were tested in a human RORγ ligand binding assay using a commercially available cell based ligand binding reporter assay in 96-well format (Cat #IB04001, INDIGO Biosciences, State College, Pa.). The N-terminal DNA binding domains (DBD) of the native RORγ and RORγt receptors have been substituted with that of the yeast GAL4-DBD and stably transfected in […] cells that also stably express luciferase under the regulation by upstream activation sequence of yeast Gal4. These cells constitutively express high level RORγ activity due to binding of endogenous co-factors. Both agonist and inverse agonist activity can be detected. The assay was performed according to kit manufacturer's instructions as follows. 10 mM compound stocks were diluted serially 1:3 with DMSO and further diluted with provided media to generate 10 titration points from 60 μM to 3 nM. These treatment conditions were added to the plates as 2× media in 100 μL volume. Each plate includes a positive control with 10 titration points as well as 6negative control wells with vehicle only, with final DMSO concentration of 0.2%. RORγ reporter cells were rapidly thawed and added to the plates in 100 μL volume. The plates were incubated for 24h in a 37° C. humidified 5% CO2incubator. Media was removed before the addition of room temperature luciferous detection substrate. After 5 minute incubation, relative light units (RLUs) were quantified using a plate reading luminometer. Data was normalized to positive control wells with only […]. Before establishing internal controls, ursolic acid was used as control.
(In general: A reporter such as luciferase makes a cellular process visible.)
Molecule `Cc1cc(CN2C3CCC2CN(Cc2ccc(-c4ccc(C(O)(C(F)(F)F)C(F)(F)F)cc4)c(Cl)c2)C3)ccn1` [Example 48, 2-(2′-chloro-4′-((8-((2-methylpyridin-4-yl)methyl)-3,8-diazabicyclo[3.2.1]octan-3-yl)methyl)-[1,1′-biphenyl]-4-yl)-1,1,1,3,3,3-hexafluoropropan-2-ol] returned an IC50 of 50 to 250 nM.

For `Cc1cc(CN2CC3CC2CN3S(C)(=O)=O)ccc1-c1ccc(C(O)(C(F)(F)F)C(F)(F)F)cc1` (stereo not shown) [Example 49, 1,1,1,3,3,3-hexafluoro-2-(2′-methyl-4′-((5-(methylsulfonyl)-2,5-diazabicyclo[2.2.1]heptan-2-yl)methyl)-[1,1′-biphenyl]-4-yl)propan-2-ol], the IC50 was > 250 nM.

Regarding `Cc1cc(CN2CC3CCC2CN3S(C)(=O)=O)ccc1-c1ccc(C(O)(C(F)(F)F)C(F)(F)F)cc1` (stereo not shown) [Example 50, 1,1,1,3,3,3-hexafluoro-2-(2′-methyl-4′-((5-(methylsulfonyl)-2,5-diazabicyclo[2.2.2]octan-2-yl)methyl)-[1,1′-biphenyl]-4-yl)propan-2-ol], the IC50 was > 250 nM.

As to `Cc1cc(CN2CC3CCC(C2)N3Cc2ccnnc2)ccc1-c1ccc(C(O)(C(F)(F)F)C(F)(F)F)cc1` [Example 51, 1,1,1,3,3,3-hexafluoro-2-(2′-methyl-4′-((8-(pyridazin-4-ylmethyl)-3,8-diazabicyclo[3.2.1]octan-3-yl)methyl)-[1,1′-biphenyl]-4-yl)propan-2-ol], the half-maximal inhibitory concentration (IC50) is < 50 nM.

Turning to `CCc1cc(CN2CC3CCC(C2)N3S(C)(=O)=O)ccc1-c1ccc(C(O)(C(F)(F)F)C(F)(F)F)cc1` [Example 52, 2-(2′-ethyl-4′-((8-(methylsulfonyl)-3,8-diazabicyclo[3.2.1]octan-3-yl)methyl)-[1,1′-biphenyl]-4-yl)-1,1,1,3,3,3-hexafluoropropan-2-ol], the IC50 is < 50 nM.

As to `CCc1cc(CN2CC3CCC(C2)N3Cc2ccncc2)ccc1-c1ccc(C(O)(C(F)(F)F)C(F)(F)F)cc1` [Example 53, 2-(2′-ethyl-4′-((8-(pyridin-4-ylmethyl)-3,8-diazabicyclo[3.2.1]octan-3-yl)methyl)-[1,1′-biphenyl]-4-yl)-1,1,1,3,3,3-hexafluoropropan-2-ol], the IC50 was < 50 nM.

As to `COCC(=O)N1C2CCC1CN(Cc1ccc(-c3ccc(C(O)(C(F)(F)F)C(F)(F)F)cc3)c(C)c1)C2` [Example 54, 1-(3-((4′-(1,1,1,3,3,3-hexafluoro-2-hydroxypropan-2-yl)-2-methyl-[1,1′-biphenyl]-4-yl)methyl)-3,8-diazabicyclo[3.2.1]octan-8-yl)-2-methoxyethan-1-one], the IC50 is 50 to 250 nM.

On to `CS(=O)(=O)N1C2CCC1CN(Cc1ccc(-c3ccc(C(O)(C(F)(F)F)C(F)(F)F)cc3)c(Cl)c1)C2` [Example 55, 2-(2′-chloro-4′-((8-(methylsulfonyl)-3,8-diazabicyclo[3.2.1]octan-3-yl)methyl)-[1,1′-biphenyl]-4-yl)-1,1,1,3,3,3-hexafluoropropan-2-ol], for which the IC50 fell in the range of 50 to 250 nM.

Turning to `OC(c1ccc(-c2ccc(CN3CC4CCC(C3)N4Cc3ccncc3)cc2Cl)cc1)(C(F)(F)F)C(F)(F)F` [Example 56, 2-(2′-chloro-4′-((8-(pyridin-4-ylmethyl)-3,8-diazabicyclo[3.2.1]octan-3-yl)methyl)-[1,1′-biphenyl]-4-yl)-1,1,1,3,3,3-hexafluoropropan-2-ol], the IC50 is < 50 nM.

Consider `CS(=O)(=O)N1C2CCC1CN(Cc1ccc(-c3ccc(C(O)(C(F)(F)F)C(F)(F)F)cc3)c(C(F)(F)F)c1)C2` [Example 57, 1,1,1,3,3,3-hexafluoro-2-(4′-((8-(methylsulfonyl)-3,8-diazabicyclo[3.2.1]octan-3-yl)methyl)-2′-(trifluoromethyl)-[1,1′-biphenyl]-4-yl)propan-2-ol], for which the IC50 was 50 to 250 nM.

In the case of `OC(c1ccc(-c2ccc(CN3CC4CCC(C3)N4Cc3ccncc3)cc2C(F)(F)F)cc1)(C(F)(F)F)C(F)(F)F` [Example 58, 1,1,1,3,3,3-hexafluoro-2-(4′-((8-(pyridin-4-ylmethyl)-3,8-diazabicyclo[3.2.1]octan-3-yl)methyl)-2′-(trifluoromethyl)-[1,1′-biphenyl]-4-yl)propan-2-ol], the IC50 is < 50 nM.

`OC(c1ccc(-c2ccc(CN3CC4CCC(C3)N4Cc3ccncc3)cc2F)cc1)(C(F)(F)F)C(F)(F)F` [Example 59, 1,1,1,3,3,3-hexafluoro-2-(2′-fluoro-4′-((8-(pyridin-4-ylmethyl)-3,8-diazabicyclo[3.2.1]octan-3-yl)methyl)-[1,1′-biphenyl]-4-yl)propan-2-ol]: the IC50 is > 250 nM.

Turning to `Cc1cc(CN2CC3CCC(C2)N3S(=O)(=O)C(F)(F)F)ccc1-c1ccc(C(O)(C(F)(F)F)C(F)(F)F)cc1` [Example 60, 1,1,1,3,3,3-hexafluoro-2-(2′-methyl-4′-((8-((trifluoromethyl)sulfonyl)-3,8-diazabicyclo[3.2.1]octan-3-yl)methyl)-[1,1′-biphenyl]-4-yl)propan-2-ol], the IC50 is > 250 nM.

On to `CS(=O)(=O)N1C2CCC1CN(Cc1ccc(-c3ccc(C(O)(C(F)(F)F)C(F)(F)F)cc3)c(F)c1)C2` [Example 61, 1,1,1,3,3,3-hexafluoro-2-(2′-fluoro-4′-((8-(methylsulfonyl)-3,8-diazabicyclo[3.2.1]octan-3-yl)methyl)-[1,1′-biphenyl]-4-yl)propan-2-ol], for which the IC50 is > 250 nM.

On to `Cc1cc(CN2CC3CCC(C2)N3S(=O)(=O)c2ccc(F)cc2)ccc1-c1ccc(C(O)(C(F)(F)F)C(F)(F)F)cc1` [Example 62, 1,1,1,3,3,3-hexafluoro-2-(4′-((8-((4-fluorophenyl)sulfonyl)-3,8-diazabicyclo[3.2.1]octan-3-yl)methyl)-2′-methyl-[1,1′-biphenyl]-4-yl)propan-2-ol], for which the IC50 is > 250 nM.

Consider `Cc1cc(CN2CC3CCC(C2)N3Cc2ccncc2F)ccc1-c1ccc(C(O)(C(F)(F)F)C(F)(F)F)cc1` [Example 63, 1,1,1,3,3,3-hexafluoro-2-(4′-((8-((3-fluoropyridin-4-yl)methyl)-3,8-diazabicyclo[3.2.1]octan-3-yl)methyl)-2′-methyl-[1,1′-biphenyl]-4-yl)propan-2-ol], for which the IC50 is 50 to 250 nM.

Regarding `Cc1cc(CN2CC3CCC(C2)N3S(=O)(=O)C2CC2)ccc1-c1ccc(C(O)(C(F)(F)F)C(F)(F)F)cc1` [Example 64, 2-(4′-((8-(cyclopropylsulfonyl)-3,8-diazabicyclo[3.2.1]octan-3-yl)methyl)-2′-methyl-[1,1′-biphenyl]-4-yl)-1,1,1,3,3,3-hexafluoropropan-2-ol], the IC50 fell in the range of 50 to 250 nM.

Regarding `Cc1cc(CN2CC3CCC(C2)N3S(=O)(=O)Cc2ccccc2)ccc1-c1ccc(C(O)(C(F)(F)F)C(F)(F)F)cc1` [Example 65, 2-(4′-((8-(benzylsulfonyl)-3,8-diazabicyclo[3.2.1]octan-3-yl)methyl)-2′-methyl-[1,1′-biphenyl]-4-yl)-1,1,1,3,3,3-hexafluoropropan-2-ol], the IC50 is > 250 nM.

For `Cc1cc(CN2C3CCC2CN(Cc2ccc(-c4ccc(C(O)(C(F)(F)F)C(F)(F)F)cc4)c(C)c2)C3)ccn1` [Example 66, 1,1,1,3,3,3-hexafluoro-2-(2′-methyl-4′-((8-((2-methylpyridin-4-yl)methyl)-3,8-diazabicyclo[3.2.1]octan-3-yl)methyl)-[1,1′-biphenyl]-4-yl)propan-2-ol], the IC50 was > 250 nM.
